According to US20070265261A1, “Dpp-IV Inhibitors” (priority 2004, published 2007):

Target: T1, DPP-IV (Homo sapiens, UniProt P27487)
T1 construct: Soluble human DPP-IV lacking the transmembrane anchor (Gly31-Pro766); Pre-Pro-alpha-mating factor leader (secretion signal) (N, cleaved yes); made in house
Test: Inhibition of DPP-IV peptidase activity, continuous fluorimetric assay (cleavage of Gly-Pro-AMC)
Assay type: biochemical
Description: Inhibition of DPP-IV peptidase activity was monitored with a continuous fluorimetric assay. This assay is based on the cleavage of the substrate Gly-Pro-AMC (Bachem) by DPP-IV, releasing free AMC. The assay is carried out in 96-well microtiter plates. In a total volume of 100 μL, compounds are preincubated with […] DPP-IV employing a buffer containing 10 mM Hepes, 150 mM NaCl, 0.005% Tween 20 (pH 7.4). […] The final concentration of DMSO is 1%. The inhibitory potential of the compounds were determined.
Soluble human DPP-IV lacking the transmembrane anchor (Gly31-Pro766) was expressed in a recombinant YEAST-strain as Pre-Pro-alpha-mating fusion. The secreted product (rhuDPP-IV-Gly31-Pro766) was purified from fermentation broth (>90% purity).

T1 sequence (P27487 31-766): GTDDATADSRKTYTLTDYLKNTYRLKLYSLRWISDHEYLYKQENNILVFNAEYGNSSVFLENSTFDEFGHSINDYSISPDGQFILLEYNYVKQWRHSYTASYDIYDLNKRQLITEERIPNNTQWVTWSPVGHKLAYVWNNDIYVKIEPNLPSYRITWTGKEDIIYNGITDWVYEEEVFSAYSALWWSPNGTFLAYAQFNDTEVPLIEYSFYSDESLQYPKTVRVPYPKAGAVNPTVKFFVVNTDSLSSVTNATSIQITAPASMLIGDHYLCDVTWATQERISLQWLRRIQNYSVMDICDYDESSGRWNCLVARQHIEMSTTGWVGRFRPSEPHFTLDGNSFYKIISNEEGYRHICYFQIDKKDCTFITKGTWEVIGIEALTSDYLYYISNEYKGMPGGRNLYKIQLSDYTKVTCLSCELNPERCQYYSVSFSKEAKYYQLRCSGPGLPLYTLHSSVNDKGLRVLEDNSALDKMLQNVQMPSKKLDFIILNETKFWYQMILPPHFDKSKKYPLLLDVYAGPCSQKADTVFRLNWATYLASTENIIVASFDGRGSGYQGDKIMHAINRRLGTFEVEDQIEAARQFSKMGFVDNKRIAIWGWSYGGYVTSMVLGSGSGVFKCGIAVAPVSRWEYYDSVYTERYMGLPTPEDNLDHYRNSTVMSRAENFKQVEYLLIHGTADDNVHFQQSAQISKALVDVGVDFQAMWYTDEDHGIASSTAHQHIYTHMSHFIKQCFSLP

Row | Structure (SMILES) | IC50
1 | N[C@@H](Cc1cc(F)ccc1F)C1CCN(C(=O)c2cnccn2)CC1 (single isomer, unassigned) [Example 44] | 0.101 to 1 µM
2 | N[C@@H](Cc1cc(F)ccc1F)C1CCN(C(=O)c2ccc(C(F)(F)F)nc2)CC1 (single isomer, unassigned) [Example 47] | 1 to 2 µM
3 | N[C@@H](Cc1cc(F)ccc1F)C1CCN(C(=O)c2ccnc(C(F)(F)F)n2)CC1 (single isomer, unassigned) [Example 50] | 0.101 to 1 µM
4 | N[C@@H](Cc1cc(F)ccc1F)C1CCN(C(=O)c2ccnn2C(F)F)CC1 (single isomer, unassigned) [Example 53] | 1 to 2 µM
5 | N[C@@H](Cc1cc(F)c(F)cc1F)C1CCN(C(=O)c2ccnc(C(F)(F)F)n2)CC1 (single isomer, unassigned) [Example 65] | 1 to 2 µM
6 | N[C@H](Cc1cccc(Cl)c1)C1CCNCC1 (stereo in doubt) [Example 7, 2-(3-Chloro-phenyl)-1-piperidin-4-yl-ethylamine] | 0.101 to 1 µM
7 | CC(C)(C)OC(=O)N1CCC(C(N)Cc2cccc(Cl)c2)CC1 (stereo not shown) [Example 6, 4-[1-Amino-2-(3-chloro-phenyl)-ethyl]-piperidine-1-carboxylic acid tert.-butyl ester] | 0.101 to 1 µM
8 | N[C@H](Cc1cccc(Cl)c1)C1CCN(C(=O)c2ncccn2)CC1 [Example 8, {4-[(R)-1-Amino-2-(3-chloro-phenyl)-ethyl]-piperidin-1-yl}-pyrimidin-2-yl-methanone] | < 0.1 µM
9 | NC(Cc1cccc(Cl)c1)C1CCN(C(=O)C2CC2)CC1 (stereo not shown) [Example 9] | 0.101 to 1 µM
10 | NC(Cc1cccc(Cl)c1)C1CCN(C(=O)c2ccccc2)CC1 (stereo not shown) [Example 10] | < 0.1 µM
11 | NC(Cc1cccc(Cl)c1)C1CCN(C(=O)c2cccnc2)CC1 (stereo not shown) [Example 11] | < 0.1 µM
12 | NC(Cc1cccc(Cl)c1)C1CCN(C(=O)CC2CC2)CC1 (stereo not shown) [Example 12] | 0.101 to 1 µM
13 | NC(Cc1cccc(Cl)c1)C1CCN(C(=O)C2CCOC2)CC1 (stereo not shown) [Example 13] | 0.101 to 1 µM
14 | NC(Cc1cccc(Cl)c1)C1CCN(C(=O)Cc2ccccc2)CC1 (stereo not shown) [Example 14] | 0.101 to 1 µM
15 | NC(Cc1cccc(Cl)c1)C1CCN(C(=O)c2cnccn2)CC1 (stereo not shown) [Example 15] | < 0.1 µM
16 | NC(Cc1cccc(Cl)c1)C1CCN(C(=O)C2(C(F)(F)F)CC2)CC1 (stereo not shown) [Example 16] | 0.101 to 1 µM
17 | NC(Cc1cccc(Cl)c1)C1CCN(C(=O)c2ccc(C(F)(F)F)nc2)CC1 (stereo not shown) [Example 17] | < 0.1 µM
18 | NC(Cc1cccc(Cl)c1)C1CCN(C(=O)c2cn[nH]c2)CC1 (stereo not shown) [Example 18] | 0.101 to 1 µM
19 | Cn1cc(C(=O)N2CCC(C(N)Cc3cccc(Cl)c3)CC2)c(C(F)(F)F)n1 (stereo not shown) [Example 19] | < 0.1 µM
20 | NC(Cc1cccc(Cl)c1)C1CCN(C(=O)c2ncccn2)CC1 (stereo not shown) [Example 20] | < 0.1 µM
21 | N[C@@H](Cc1cccc(Cl)c1)C1CCN(C(=O)c2ncccn2)CC1 [Example 21] | 1 to 2 µM
22 | NC(Cc1cccc(Cl)c1)C1CCN(C(=O)c2ccnnc2)CC1 (stereo not shown) [Example 22] | < 0.1 µM
23 | NC(Cc1cccc(Cl)c1)C1CCN(C(=O)c2cncnc2)CC1 (stereo not shown) [Example 23] | < 0.1 µM
24 | Cc1cc(C(=O)N2CCC(C(N)Cc3cccc(Cl)c3)CC2)no1 (stereo not shown) [Example 24] | < 0.1 µM

Row | Structure (SMILES) | IC50
25 | NC(Cc1cccc(Cl)c1)C1CCN(C(=O)c2ccnn2C(F)F)CC1 (stereo not shown) [Example 25] | < 0.1 µM
26 | NC(Cc1cccc(Cl)c1)C1CCN(C(=O)c2ccn(C(F)F)n2)CC1 (stereo not shown) [Example 26] | < 0.1 µM
27 | Cn1cncc1C(=O)N1CCC(C(N)Cc2cccc(Cl)c2)CC1 (stereo not shown) [Example 27] | < 0.1 µM
28 | Cn1ncc(C(=O)N2CCC(C(N)Cc3cccc(Cl)c3)CC2)c1C(F)(F)F (stereo not shown) [Example 28] | < 0.1 µM
29 | Cn1cnc(C(=O)N2CCC(C(N)Cc3cccc(Cl)c3)CC2)c1 (stereo not shown) [Example 29] | 0.101 to 1 µM
30 | Cn1nc(C(=O)N2CCC(C(N)Cc3cccc(Cl)c3)CC2)cc1C(F)(F)F (stereo not shown) [Example 30] | < 0.1 µM
31 | Cn1nc(C(F)(F)F)cc1C(=O)N1CCC(C(N)Cc2cccc(Cl)c2)CC1 (stereo not shown) [Example 31] | 0.101 to 1 µM
32 | NC(Cc1cccc(Cl)c1)C1CCN(C(=O)c2cnccc2C(F)(F)F)CC1 (stereo not shown) [Example 32] | < 0.1 µM
33 | NC(Cc1cccc(Cl)c1)C1CCN(C(=O)c2cc(C(F)(F)F)n[nH]2)CC1 (stereo not shown) [Example 33] | 0.101 to 1 µM
34 | NC(Cc1cccc(Cl)c1)C1CCN(S(=O)(=O)C2CC2)CC1 (stereo not shown) [Example 34, 2-(3-Chloro-phenyl)-1-(1-cyclopropanesulphonyl-piperidin-4-yl)-ethylamine] | < 0.1 µM
35 | NC(Cc1cccc(Cl)c1)C1CCN(S(=O)(=O)c2ccccc2)CC1 (stereo not shown) [Example 35] | < 0.1 µM
36 | NC(Cc1cccc(Cl)c1)C1CCN(S(=O)(=O)Cc2ccccc2)CC1 (stereo not shown) [Example 36] | < 0.1 µM
37 | NC(Cc1cc(F)ccc1F)C1CCN(S(=O)(=O)C2CC2)CC1 (stereo not shown) [Example 37] | < 0.1 µM
38 | N[C@H](Cc1cc(F)ccc1F)C1CCN(S(=O)(=O)C2CC2)CC1 [Example 38] | < 0.1 µM
39 | N[C@@H](Cc1cc(F)ccc1F)C1CCN(S(=O)(=O)C2CC2)CC1 [Example 39] | 0.101 to 1 µM
40 | CC(C)(C)OC(=O)N1CCC(C(N)Cc2cc(F)ccc2F)CC1 (stereo not shown) [Example 40, 4-[1-Amino-2-(2,5-difluoro-phenyl)-ethyl]-piperidine-1-carboxylic acid tert-butyl ester] | < 0.1 µM
41 | N[C@H](Cc1cc(F)ccc1F)C1CCN(C(=O)c2ncccn2)CC1 [Example 41] | < 0.1 µM
42 | N[C@@H](Cc1cc(F)ccc1F)C1CCN(C(=O)c2ncccn2)CC1 [Example 42] | 1 to 2 µM
43 | N[C@H](Cc1cc(F)ccc1F)C1CCN(C(=O)c2cnccn2)CC1 [Example 43] | < 0.1 µM
44 | NC(Cc1cc(F)ccc1F)C1CCN(C(=O)c2cnccn2)CC1 (stereo not shown) [Example 45] | < 0.1 µM
45 | N[C@H](Cc1cc(F)ccc1F)C1CCN(C(=O)c2ccc(C(F)(F)F)nc2)CC1 [Example 46] | < 0.1 µM
46 | NC(Cc1cc(F)ccc1F)C1CCN(C(=O)c2ccc(C(F)(F)F)nc2)CC1 (stereo not shown) [Example 48] | < 0.1 µM
47 | N[C@H](Cc1cc(F)ccc1F)C1CCN(C(=O)c2ccnc(C(F)(F)F)n2)CC1 [Example 49] | < 0.1 µM
48 | NC(Cc1cc(F)ccc1F)C1CCN(C(=O)c2ccnc(C(F)(F)F)n2)CC1 (stereo not shown) [Example 51] | < 0.1 µM

Row | Structure (SMILES) | IC50
49 | N[C@H](Cc1cc(F)ccc1F)C1CCN(C(=O)c2ccnn2C(F)F)CC1 [Example 52] | < 0.1 µM
50 | NC(Cc1cc(F)ccc1F)C1CCN(C(=O)c2cnc(C(F)(F)F)nc2)CC1 (stereo not shown) [Example 54] | < 0.1 µM
51 | NC(Cc1cc(F)ccc1F)C1CCN(C(=O)c2ncc(F)cc2F)CC1 (stereo not shown) [Example 55] | < 0.1 µM
52 | NC(Cc1cc(F)ccc1F)C1CCN(C(=O)c2ccn(C(F)F)n2)CC1 (stereo not shown) [Example 56] | < 0.1 µM
53 | NC(Cc1cc(F)ccc1F)C1CCN(C(=O)c2ncccc2C(F)(F)F)CC1 (stereo not shown) [Example 57] | < 0.1 µM
54 | NC(Cc1cc(F)ccc1F)C1CCN(C(=O)c2cc(C(F)(F)F)ccn2)CC1 (stereo not shown) [Example 58] | < 0.1 µM
55 | NC(Cc1cc(F)ccc1F)C1CCN(C(=O)c2cccc(C(F)(F)F)n2)CC1 (stereo not shown) [Example 59] | < 0.1 µM
56 | N[C@H](Cc1cc(F)ccc1F)C1CCN(C(=O)c2nccc(C(F)(F)F)n2)CC1 [Example 60] | < 0.1 µM
57 | N[C@@H](Cc1cc(F)ccc1F)C1CCN(C(=O)c2nccc(C(F)(F)F)n2)CC1 [Example 61] | 0.101 to 1 µM
58 | N[C@H](Cc1cc(F)c(F)cc1F)C1CCN(C(=O)c2ncccn2)CC1 [Example 63, {4-[(R)-1-amino-2-(2,4,5-trifluoro-phenyl)-ethyl]-piperidine-1yl}-pyrimidine-2-yl-methanone] | < 0.1 µM
59 | N[C@H](Cc1cc(F)c(F)cc1F)C1CCN(C(=O)c2ccnc(C(F)(F)F)n2)CC1 [Example 64] | < 0.1 µM
60 | NC(Cc1cc(F)c(F)cc1F)C1CCN(C(=O)c2ccnc(C(F)(F)F)n2)CC1 (stereo not shown) [Example 66] | < 0.1 µM
61 | N[C@H](Cc1cc(F)c(F)cc1F)C1CCN(C(=O)c2ccc(C(F)(F)F)nc2)CC1 [Example 67] | < 0.1 µM
62 | N[C@H](Cc1cc(F)cc(F)c1F)C1CCN(C(=O)c2ncccn2)CC1 [Example 68] | 0.101 to 1 µM
63 | N[C@H](Cc1cc(F)cc(F)c1F)C1CCN(C(=O)c2ccnc(C(F)(F)F)n2)CC1 [Example 69] | < 0.1 µM
64 | CC(C)(C)OC(=O)N1CCCC(C(N)Cc2cccc(Cl)c2)C1 (stereo not shown) [Example 70, 3-[1-Amino-2-(3-chloro-phenyl)-ethyl]-piperidine-1-carboxylic acid tert.-butyl ester] | 0.101 to 1 µM
65 | NC(Cc1cccc(Cl)c1)C1CCCNC1 (stereo not shown) [Example 71, 2-(3-Chloro-phenyl)-1-piperidin-3-yl-ethylamine] | 1 to 2 µM
66 | CS(=O)(=O)Nc1cccc(C(=O)N2CCC(C(N)Cc3cccc(Cl)c3)CC2)c1 (stereo not shown) [Example 72, N-(3-{4-[1-Amino-2-(3-chloro-phenyl)-ethyl]-piperidine-1-carbonyl}-phenyl)-methane-sulphonamide] | < 0.1 µM
67 | NC(Cc1cccc(Cl)c1)C1CCN(c2ncccn2)CC1 (stereo not shown) [Example 73] | 0.101 to 1 µM
68 | NC(Cc1cc(F)ccc1F)C1CCN(C(=O)N2CCC(F)(F)C2)CC1 (stereo not shown) [Example 74, {4-[1-Amino-2-(2 5-difluoro-phenyl)-ethyl]-piperidin-1-yl}-(3,3-difluoro-pyrrolidin-1-yl)-methanone] | < 0.1 µM
69 | NC(Cc1cccc(Cl)c1)C1CCN(C(=O)N2CCOCC2)CC1 (stereo not shown) [Example 75] | < 0.1 µM
70 | NC(Cc1cccc(Cl)c1)C1CCN(C(=O)N2CCCC2)CC1 (stereo not shown) [Example 76] | < 0.1 µM
